According to paper PMC8778670, “Identification of an Orally Bioavailable, Brain-Penetrant Compound with Selectivity for the Cannabinoid Type 2 Receptor” (Molecules, 2022):

Target: T1, human CB1 receptors (Homo sapiens, UniProt P21554)
T1 construct: expressed in transfected cells; host or cells: CHO cells
Experiment: Cannabinoid receptor [3H]CP-55,940 displacement binding assay, CB1
Settings: 1 h; 10 µM compound; CHO cell membranes, 2.5 nM radioligand; read-out: Displacement of [3H]CP-55,940 from CB1
Experimental: The affinities of the compounds for CB1 and CB2 receptors were examined using displacement assays, as previously described. Briefly, cell membranes from CHO cells expressing human CB1 or human CB2 receptors were isolated using differential centrifugation. Test compounds reconstituted in DMSO and were incubated with the isolated membrane in binding buffer (50 mM Tris-HCl, 1 mM EDTA, 3 mM MgCl2, 5 mg/mL BSA, pH 7.4) along with 2.5 nM [^3H]CP-55,940. Total binding was assessed in the presence of equal concentration of DMSO, while non-specific binding was determined in the presence of 10 μM CP-55,940, and background binding was determined in wells lacking membrane. Following incubation at 30 °C for 60 min, the binding reactions were terminated by vacuum filtration through Whatman GF/C filters. The filters were then washed twice with ice-cold buffer (50 mM Tris-HCl, 1 mg/mL BSA). Liquid scintillation cocktail was added to each well and the total tritiated counts per minute were analyzed using a TopCount scintillation counter. Background counts were subtracted from all wells and the percent displacement from total binding was calculated.
The compounds were initially screened at 10 μM concentrations. If they produced at least ±30% displacement of the radioligand, then full competition curves were constructed. Ki values were calculated using GraphPad Prism (San Diego, CA, USA) and Kd values determined using a 1 site fit. All assays were run in technical and biological replicates so that the n = 5–6.

T1 sequence (P21554 whole entry): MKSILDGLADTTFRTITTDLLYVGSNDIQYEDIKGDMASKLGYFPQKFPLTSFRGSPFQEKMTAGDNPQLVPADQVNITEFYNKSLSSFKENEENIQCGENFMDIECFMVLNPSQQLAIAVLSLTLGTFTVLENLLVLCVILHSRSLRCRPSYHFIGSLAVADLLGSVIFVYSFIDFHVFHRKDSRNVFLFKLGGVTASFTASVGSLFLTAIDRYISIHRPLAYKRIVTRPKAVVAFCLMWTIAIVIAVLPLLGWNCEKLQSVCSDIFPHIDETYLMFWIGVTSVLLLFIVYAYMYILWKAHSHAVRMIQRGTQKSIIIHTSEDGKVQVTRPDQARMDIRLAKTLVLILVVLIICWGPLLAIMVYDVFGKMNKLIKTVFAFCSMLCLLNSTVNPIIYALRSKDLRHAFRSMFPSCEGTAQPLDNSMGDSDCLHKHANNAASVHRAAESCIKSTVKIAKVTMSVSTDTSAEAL

inhibition at 10 µM: 41.3%
SMILES: O=C1c2ccc(Cl)cc2N/C(=N/N=C/c2cc3ccccc3s2)[C@@H]2CCCN12 [Compound 4k]
